What all share (type): functional, cell-based
For data set [1], the target named is T1, Solute carrier family 22 member 2 (Homo sapiens, UniProt O15244).
T1 sequence (O15244 whole entry): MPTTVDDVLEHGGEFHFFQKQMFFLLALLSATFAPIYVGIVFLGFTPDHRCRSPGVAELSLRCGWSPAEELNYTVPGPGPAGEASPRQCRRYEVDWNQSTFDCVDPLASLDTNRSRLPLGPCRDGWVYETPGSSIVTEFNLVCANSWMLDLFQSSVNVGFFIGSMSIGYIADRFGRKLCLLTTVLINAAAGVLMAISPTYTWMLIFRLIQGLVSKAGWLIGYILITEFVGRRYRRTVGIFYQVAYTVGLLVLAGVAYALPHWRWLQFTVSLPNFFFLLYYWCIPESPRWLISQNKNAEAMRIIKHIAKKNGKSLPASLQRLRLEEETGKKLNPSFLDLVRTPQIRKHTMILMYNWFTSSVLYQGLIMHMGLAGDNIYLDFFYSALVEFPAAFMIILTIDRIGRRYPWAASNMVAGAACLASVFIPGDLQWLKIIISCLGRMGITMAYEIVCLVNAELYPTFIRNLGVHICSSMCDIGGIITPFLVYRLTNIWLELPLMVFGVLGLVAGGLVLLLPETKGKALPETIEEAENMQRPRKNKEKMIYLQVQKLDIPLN
In words: TP_TRANSPORTER: inhibition of cimetidine uptake (Cimetidine: 100 uM, Propranolol: 1000 uM) in OCT2-expressing mIMCD3 cells. To be noted: mouse, mimcd3, 1000 µM.

Data set [2] has as its target T1, Solute carrier family 22 member 2. As to the kind of experiment: (§1) TP_TRANSPORTER: uptake in OCT2-expressing mIMCD3 cells. To be noted: mouse.
Data set [3] shares this target. As to the kind of experiment: TP_TRANSPORTER: inhibition of cimetidine uptake (Cimetidine: 100 uM, Metoprolol: 1000 uM) in OCT2-expressing mIMCD3 cells. To be noted: mouse, mimcd3, 1000 µM.
Substrate in data set [4]: C[n+]1ccc(-c2ccccc2)cc1
The data set is described as §1.

Regarding `CC(C)NCC(O)COc1cccc2ccccc12` (stereo not given) [PROPRANOLOL], the Activity result in data set [1] was “inhibitor [(at a rough estimate) 10 % of control]”; in data set [2] it was “substrate [+]”.

Consider `COCCc1ccc(OCC(O)CNC(C)C)cc1` (stereo not given) [METOPROLOL], for which the Activity result in data set [3] was “inhibitor [(at a rough estimate) 30 % of control]”.

Consider `CN/C(=N/CCSCc1nc[nH]c1C)NC#N` [CIMETIDINE], for which the Activity result in data set [2] is “substrate [+]”.

B1: Solute carrier family 22 member 2 (Homo sapiens) (protein)
chain: MPTTVDDVLEHGGEFHFFQKQMFFLLALLSATFAPIYVGIVFLGFTPDHRCRSPGVAELSLRCGWSPAEELNYTVPGPGPAGEASPRQCRRYEVDWNQSTFDCVDPLASLDTNRSRLPLGPCRDGWVYETPGSSIVTEFNLVCANSWMLDLFQSSVNVGFFIGSMSIGYIADRFGRKLCLLTTVLINAAAGVLMAISPTYTWMLIFRLIQGLVSKAGWLIGYILITEFVGRRYRRTVGIFYQVAYTVGLLVLAGVAYALPHWRWLQFTVSLPNFFFLLYYWCIPESPRWLISQNKNAEAMRIIKHIAKKNGKSLPASLQRLRLEEETGKKLNPSFLDLVRTPQIRKHTMILMYNWFTSSVLYQGLIMHMGLAGDNIYLDFFYSALVEFPAAFMIILTIDRIGRRYPWAASNMVAGAACLASVFIPGDLQWLKIIISCLGRMGITMAYEIVCLVNAELYPTFIRNLGVHICSSMCDIGGIITPFLVYRLTNIWLELPLMVFGVLGLVAGGLVLLLPETKGKALPETIEEAENMQRPRKNKEKMIYLQVQKLDIPLN
For B1, in data set [4], the Michaelis constant (Km) is 22.2 µM.

The record behind these values is ChEMBL document CHEMBL2074073, “The organic cation transporter OCT2 mediates the uptake of beta-adrenoceptor antagonists across the apical membrane of renal LLC-PK(1) cell monolayers” (Br J Pharmacol, 2000).
